The values that follow are results of earlier work, collected in the PKSmart pharmacokinetics tables (Seal et al. 2025).

Structures are written as SMILES.

The nature of this data set: Lombardo, Berellini, Obach 2018, Drug Metab Dispos 46:1466, doi 10.1124/dmd.118.082966. The following applies: human; for MRT / Vd / clearance / half-life: in vivo, iv; for fraction unbound: plasma.

For orientation: MRT means a mean duration of stay, worked out from the concentration-time curve. As a reminder, the Vd is the apparent volume that relates the amount in the body to the concentration in plasma or blood. What is called clearance is the rate of elimination divided by the concentration. A word on the half-life: it is the time in which the quantity being followed falls by half. In the case of `NC[C@H]1O[C@H](O[C@H]2[C@H](O[C@@H]3O[C@H](CO)[C@@H](O)[C@H]3O)[C@@H](O)[C@H](N)C[C@@H]2N)[C@H](N)[C@@H](O)[C@@H]1O`, the MRT is 2.8 h, the Vd is 0.25 L/kg, the clearance is 1.5 mL/min/kg and the half-life is 150 min.

For the compound `CC(=N)N1CC[C@H](Oc2ccc(C(Cc3ccc4ccc(C(=N)N)cc4c3)C(=O)O)cc2)C1` (some centres not stated), the MRT was 14.4 h, the Vd was 1.55 L/kg, the clearance is 1.86 mL/min/kg and the half-life was 1440 min.

Take `N=C(N)NC(=O)c1cnn(-c2cccc3ncccc23)c1C1CC1`: the MRT is 1.3 h, the Vd is 1.7 L/kg and the half-life was 120 min.

Turning to `Clc1cccc(N2CCNCC2)c1`, the MRT was 7 h, the volume of distribution (Vd) was 2.5 L/kg, the clearance is 6.1 mL/min/kg and the half-life is 282 min.

As to `COC(=O)N(C)c1c(N)nc(-c2nn(Cc3ccccc3F)c3ncccc23)nc1N`, the MRT is 10 h, the Vd is 0.44 L/kg, the clearance was 0.74 mL/min/kg and the half-life is 546 min.

Usually fraction unbound stands for the share of the substance not bound to proteins or other matrix. In the case of `CCN(CC)CCOC(=O)C(Cc1cccc2ccccc12)CC1CCCO1` (configuration not stated), the MRT is 1.5 h, the Vd is 0.98 L/kg, the clearance was 10.8 mL/min/kg and the half-life was 81 min. Further, the fraction unbound was 0.2.

On to `C[C@@H](N)[C@H]1CC[C@@H](N)[C@@H](O[C@@H]2[C@@H](N)[C@@H](O)[C@@H](O)[C@@H](N(C)C(=O)CN)[C@H]2O)O1`, for which the MRT was 3.3 h, the Vd was 0.27 L/kg, the clearance was 1.37 mL/min/kg and the half-life is 174 min.

For `NCCCCC(NC(CCc1ccccc1)C(=O)O)C(=O)N1CCCC1C(=O)O` (configuration not stated), the clearance is 1.2 mL/min/kg.

For the compound `CCOc1cc(CC(=O)N[C@@H](CC(C)C)c2ccccc2N2CCCCC2)ccc1C(=O)O`, the mean residence time MRT is 1.88 h, the Vd is 0.315 L/kg, the clearance was 4.92 mL/min/kg and the half-life is 101 min.

Turning to `O=C(O[C@H]1C[C@H]2CC3C[C@@H](C1)N2CC3=O)c1c[nH]c2ccccc12`, the MRT was 0.19 h, the Vd was 2 L/kg, the half-life is 7.8 min and the fraction unbound was 0.49.

As to `CCCCCCCCc1ccc(CCC(N)(CO)CO)cc1`, the MRT was 189 h, the Vd was 17.3 L/kg, the clearance was 1.53 mL/min/kg and the half-life is 8640 min. The fraction unbound is 0.002.

For `Cc1c(F)c(N2CCN[C@H](C)C2)cc2c1c(=O)c(C(=O)O)cn2C1CC1`, the clearance is 5.9 mL/min/kg, the half-life is 552 min and the fraction unbound was 0.82.

Consider `OC[C@H]1O[C@@H]2O[C@H]3[C@H](O)[C@@H](O)[C@@H](O[C@H]4[C@H](O)[C@@H](O)[C@@H](O[C@H]5[C@H](O)[C@@H](O)[C@@H](O[C@H]6[C@H](O)[C@@H](O)[C@@H](O[C@H]7[C@H](O)[C@@H](O)[C@@H](O[C@H]8[C@H](O)[C@@H](O)[C@@H](O[C@H]1[C@H](O)[C@H]2O)O[C@@H]8CO)O[C@@H]7CO)O[C@@H]6CO)O[C@@H]5CO)O[C@@H]4CO)O[C@@H]3CO`, for which the MRT is 1.9 h, the Vd was 0.21 L/kg, the clearance is 1.8 mL/min/kg and the half-life was 96 min.

Take `CN[C@@H]1[C@H](O[C@H]2[C@H](O[C@H]3[C@H](O)[C@@H](O)[C@H](NC(=N)N)[C@@H](O)[C@@H]3NC(=N)N)O[C@@H](C)[C@]2(O)C=O)O[C@@H](CO)[C@H](O)[C@H]1O`: the MRT is 7.3 h, the Vd is 0.34 L/kg, the clearance is 0.78 mL/min/kg and the half-life was 258 min. Moreover, the fraction unbound was 0.65.

With `Cc1c(O)ccc2c1OC[C@@H](c1ccc(O)cc1)[C@H]2c1ccc(O)cc1`, the MRT was 2.38 h, the Vd was 1.2 L/kg, the clearance is 8.42 mL/min/kg and the half-life is 318 min.

Take `CCC[C@@H]1CC(=O)N(C(CC)C(N)=O)C1` (some centres not stated): the MRT is 12.5 h, the Vd was 0.56 L/kg, the clearance was 0.75 mL/min/kg and the half-life was 539 min. Also, the fraction unbound was 0.825.

On to `OC(c1ccccc1)(c1ccccc1)C12CC[N+](CCOCc3ccccc3)(CC1)CC2`, for which the MRT was 0.57 h, the Vd is 1.23 L/kg, the clearance was 36 mL/min/kg and the half-life is 1140 min. In addition, the fraction unbound is 0.11.

Regarding `C[C@H](CCc1ccc(O)cc1)NCCc1ccc(O)c(O)c1`, the clearance was 115 mL/min/kg.

As for `CCNC(=O)CCC/C=C\C[C@@H]1[C@@H](/C=C\[C@@H](O)CCc2ccccc2)[C@H](O)C[C@@H]1O`, the Vd is 0.67 L/kg, the clearance was 25 mL/min/kg, the half-life was 27 min and the fraction unbound is 0.12.

Take `CN[C@H]1CN(c2ccc3c(=O)c(C(=O)O)cn(-c4nccs4)c3n2)C[C@@H]1OC`: the MRT is 30.6 h, the Vd is 1.46 L/kg, the clearance was 0.79 mL/min/kg and the half-life is 1530 min.

With `CN(C)c1cc(CNCC(C)(C)C)c(O)c2c1C[C@H]1C[C@H]3[C@H](N(C)C)C(O)=C(C(N)=O)C(=O)[C@@]3(O)C(O)=C1C2=O`, the MRT was 19.2 h, the Vd is 2.7 L/kg, the clearance is 2.34 mL/min/kg and the half-life is 900 min.

Consider `O=[N+]([O-])OCC(CO[N+](=O)[O-])O[N+](=O)[O-]`, for which the clearance is 194 mL/min/kg.

For the compound `CCOC(=O)N[C@@H]1CC[C@@H]2[C@H](CC3C(=O)O[C@H](C)[C@H]3[C@H]2/C=C/c2ccc(-c3cccc(F)c3)cn2)C1` (some centres not stated), the MRT is 183 h, the volume of distribution (Vd) was 3.74 L/kg, the clearance is 0.34 mL/min/kg and the half-life is 8940 min. Moreover, the fraction unbound was 0.01.

`COc1cc(CC2c3c(cc(OC)c(OC)c3OC)CC[N+]2(C)CCCOC(=O)CCC(=O)OCCC[N+]2(C)CCc3cc(OC)c(OC)c(OC)c3C2Cc2cc(OC)c(OC)c(OC)c2)cc(OC)c1OC` (configuration not stated): the MRT is 1.4 h, the Vd is 0.22 L/kg, the clearance is 2.7 mL/min/kg and the half-life was 102 min. The fraction unbound is 0.53.
